Measured values: PMC6745501, “Plant photoreceptors and their signaling components compete for COP1 binding via VP peptide motifs” (The EMBO Journal, 2019)
Values joined by “and” are separate entries in the source; they are usually repeats but may differ in a detail not shown here. Identical values can stand only once.

Columns and labels:
[1] = target: T1, Arabidopsis COP1^349–675 WD40 domain (Arabidopsis thaliana, UniProt P43254); test: Isothermal titration calorimetry (ITC) versus the COP1 WD40 domain; assay type: binding; conditions: for N (stoichiometry of binding), VP peptide vs. COP1 WD40 domain (WT): peptide into COP1, 25°C, one-site binding model, ± standard deviation
T1 construct: His10-Twin-Strep with TEV site (N, cleaved yes); made in house; host or cells: Spodoptera frugiperda Sf9 insect cells (baculovirus, modified pFastBac)
T1 sequence (P43254 349-675): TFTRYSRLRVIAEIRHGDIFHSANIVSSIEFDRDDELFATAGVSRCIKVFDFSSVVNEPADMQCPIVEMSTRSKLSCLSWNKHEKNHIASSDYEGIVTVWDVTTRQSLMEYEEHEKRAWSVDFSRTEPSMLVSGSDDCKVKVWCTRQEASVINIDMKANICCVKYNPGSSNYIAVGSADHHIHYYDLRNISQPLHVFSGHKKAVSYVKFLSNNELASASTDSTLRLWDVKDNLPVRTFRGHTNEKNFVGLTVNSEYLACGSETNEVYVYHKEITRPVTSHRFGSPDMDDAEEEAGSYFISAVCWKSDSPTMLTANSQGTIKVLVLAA
Description: All experiments were performed in a buffer containing 150 mM NaCl, 20 mM HEPES 7.4, and 2 mM BME. Peptides were synthesized and delivered as lyophilized powder (Peptide Specialty Labs GmbH) and dissolved directly in buffer. The peptides were centrifuged at 14,000 × g for 10 min, and only the supernatant was used. […] Experiments were performed at 25°C and a stirring speed of 1,000 rpm on an ITC200 instrument (GE Healthcare). All data were processed using Origin 7.0 and fit to a one‐site binding model after background buffer subtraction.

[2] = target: T2, COP1^Lys422Ala WD40 domain (Arabidopsis thaliana, UniProt P43254, K422A); test: biochemical; assay type: binding; conditions: for N (stoichiometry of binding), VP peptide vs. COP1^Lys422Ala: peptide into COP1^Lys422Ala, 25°C, ± standard deviation
T2 construct: His10-Twin-Strep with TEV site (N, cleaved yes); made in house; host or cells: Spodoptera frugiperda Sf9 insect cells (baculovirus, modified pFastBac)
Description: (§1) All experiments were performed in a buffer containing 150 mM NaCl, 20 mM HEPES 7.4, and 2 mM BME. […] The peptides were centrifuged at 14,000 × g for 10 min, and only the supernatant was used. The dissolved peptide concentrations were calculated based upon their absorbance at 280 nm and their corresponding molar extinction coefficient. […] Experiments were performed at 25°C and a stirring speed of 1,000 rpm on an ITC200 instrument (GE Healthcare). All data were processed using Origin 7.0 and fit to a one‐site binding model after background buffer subtraction.

COP1 WD40 domain [3] = test: Analytical size-exclusion chromatography binding assay; design: species or system Arabidopsis; conditions: Superdex 200 Increase 10/300 GL, ~4 μM per protein
Description: 500 μl of the respective protein solution or a mixture (~ 4 μM per protein) was loaded sequentially onto the column, and elution at 0.75 ml/min was monitored by UV absorbance at 280 nm.

COP1 WD40 domain [4] = test: Grating-coupled interferometry (GCI) binding kinetics versus the COP1 WD40 domain; design: species or system Arabidopsis; conditions: ligand COP1 (2000 pg/mm2), analyte in the absence of UV-B (ground state), highest concentration 2 μM, 1:1 binding model, read-out: Kd (dissociation constant), - UV-B
Description: For CRY2 activation, proteins were diluted to their final assay concentrations (as indicated in the figure legends) in Eppendorf tubes and exposed to 10 min of fluorescent light on ice.
The Creoptix WAVE system (Creoptix AG), a label‐free surface biosensor, was used to perform GCI experiments. All experiments were performed on 2PCH or 4PCH WAVEchips (quasi‐planar polycarboxylate surface; Creoptix AG). After a borate buffer conditioning (100 mM sodium borate pH 9.0, 1 M NaCl; Xantec), COP1 (ligand) was immobilized on the chip surface using standard amine‐coupling: 7 min activation [1:1 mix of 400 mM N‐(3‐dimethylaminopropyl)‐N′‐ethylcarbodiimide hydrochloride and 100 mM N‐hydroxysuccinimide (both Xantec)], injection of COP1 (10 μg/ml) in 10 mM sodium acetate pH 5.0 (Sigma) until the desired density was reached, and final quenching with 1 M ethanolamine pH 8.0 for 7 min (Xantec). […] Blank injections were used for double referencing and a dimethyl sulfoxide (DMSO) calibration curve for bulk correction. Analysis and correction of the obtained data were performed using the Creoptix WAVEcontrol software (applied corrections: X and Y offset; DMSO calibration; double referencing), and a one‐to‐one binding model or a heterogenous ligand model with bulk correction was used to fit all experiments.

[5] = target: T3, COP1^Tyr441Ala WD40 domain (Arabidopsis thaliana, UniProt P43254, Y441A); assay type: binding; conditions: ITC, peptide into COP1^Tyr441Ala, 25°C; ± standard deviation
T3 construct: His10-Twin-Strep with TEV site (N, cleaved yes); made in house; host or cells: Spodoptera frugiperda Sf9 insect cells (baculovirus, modified pFastBac)
T3 sequence (P43254 349-675 Y441A): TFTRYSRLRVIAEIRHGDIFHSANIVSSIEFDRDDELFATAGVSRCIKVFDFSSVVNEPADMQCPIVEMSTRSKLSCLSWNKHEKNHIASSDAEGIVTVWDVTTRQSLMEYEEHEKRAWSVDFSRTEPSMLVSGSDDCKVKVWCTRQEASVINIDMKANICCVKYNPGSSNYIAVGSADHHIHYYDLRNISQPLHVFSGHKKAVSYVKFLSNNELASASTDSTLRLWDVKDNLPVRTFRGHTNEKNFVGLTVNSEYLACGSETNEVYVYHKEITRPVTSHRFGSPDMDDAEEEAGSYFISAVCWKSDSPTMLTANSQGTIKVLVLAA
Description: as §1

T2 sequence (P43254 349-675 K422A): as the sequence (P43254 349-675 Y441A) above, with K74A, A93Y counted along it

## Ac-EDQMVPSITY-NH2 [CRY1 peptide]
[1]; ITC
  N (stoichiometry of binding), VP peptide vs. COP1 WD40 domain (WT): 0.99 ± 0.3
[2]; ITC
  N (stoichiometry of binding), VP peptide vs. COP1^Lys422Ala: 0.98 ± 0.1

## Ac-GFGVVPSFY-NH2 [COL3 peptide]
[1]; ITC
  N (stoichiometry of binding), VP peptide vs. COP1 WD40 domain (WT): 0.75 ± 0.2
[2]; ITC
  N (stoichiometry of binding), VP peptide vs. COP1^Lys422Ala: 0.90 ± 0.2

## UVR8: recombinant full-length Arabidopsis UV-B photoreceptor UVR8 expressed in insect cells
COP1 WD40 domain [3]; 150 mM NaCl, 20 mM HEPES 7.4, 2 mM BME, protein pre-monomerized by UV-B
  Interaction with the COP1 WD40 domain in size-exclusion chromatography, UV-B-activated: interact
COP1 WD40 domain [3]; absence of UV-B (dimer)
  Interaction with the COP1 WD40 domain in size-exclusion chromatography, non-activated: no interaction
COP1 WD40 domain [4]
  Kd: ~1 µM and 1.3 µM

## Ac-RYAVVPDE-NH2 [UVR8 peptide]
[2]; ITC
  N (stoichiometry of binding), VP peptide vs. COP1^Lys422Ala: 0.87 ± 0.2
[2]; ITC, ratio of Kd values
  Fold increase of binding affinity for COP1^Lys422Ala compared with wild type COP1: ~ 10

## Ac-GYGIVPSFY-NH2 [CO peptide]
[1]; ITC
  N (stoichiometry of binding), VP peptide vs. COP1 WD40 domain (WT): 1.03 ± 0.00
[2]
  Kd: 21 ± 10 µM
[2]; ITC
  N (stoichiometry of binding), VP peptide vs. COP1^Lys422Ala: 0.89 ± 0.03
[2]; ITC, ratio of Kd values
  Fold increase of binding affinity for COP1^Lys422Ala compared with wild type COP1: ~ 4

## Ac-EIRRVPEFGGY-NH2 [HY5 peptide]
[1]
  Kd: 23 ± 7 µM
[1]; ITC, ratio of Kd values
  Times stronger binding to COP1 than UVR8^406–413: ~ 8
[2]
  Kd: 23 ± 10 µM
[2]; ITC
  N (stoichiometry of binding), VP peptide vs. COP1^Lys422Ala: 0.83 ± 0.2
[5]
  N (stoichiometry of binding), VP peptide vs. COP1^Tyr441Ala: 0.92 ± 0.3

## Ac-NDQQVPSAVY-NH2 [CRY2 peptide]
[1]
  Kd: 21 ± 2 µM
[1]; ITC
  N (stoichiometry of binding), VP peptide vs. COP1 WD40 domain (WT): 1.04 ± 0.20
[2]; ITC, ratio of Kd values
  Times reduction of binding by the COP1^Lys422Ala mutation compared with wild type COP1: ~ 30
